Where a name gives a salt, the structure may show the parent alone.
Target: PRMT5-MEP50 enzyme complex (Homo sapiens (Human), UniProt O14744)
Experiment: PRMT5 enzyme activity in vitro assay (methylation of histone H4R3, ELISA absorbance at 450 nm)
Type: biochemical
Details: SAM, histone H4 peptide, room temperature 2 hours, 8 points from 10 μM to 0.128 nM
Outline: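 Human PRMT5-MEP50 was prepared at 5 μg/mL with SAM at 2 μM and reacted 2 h at room temperature on plate-coated histone H4 (1-20) peptide. An 8-point 1:5 compound series ran from 10 μM to 0.128 nM. H4R3 methylation was detected by antibody/HRP ELISA at 450 nm to give IC50.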

Sequence of PRMT5-MEP50 enzyme complex (O14744 2-637): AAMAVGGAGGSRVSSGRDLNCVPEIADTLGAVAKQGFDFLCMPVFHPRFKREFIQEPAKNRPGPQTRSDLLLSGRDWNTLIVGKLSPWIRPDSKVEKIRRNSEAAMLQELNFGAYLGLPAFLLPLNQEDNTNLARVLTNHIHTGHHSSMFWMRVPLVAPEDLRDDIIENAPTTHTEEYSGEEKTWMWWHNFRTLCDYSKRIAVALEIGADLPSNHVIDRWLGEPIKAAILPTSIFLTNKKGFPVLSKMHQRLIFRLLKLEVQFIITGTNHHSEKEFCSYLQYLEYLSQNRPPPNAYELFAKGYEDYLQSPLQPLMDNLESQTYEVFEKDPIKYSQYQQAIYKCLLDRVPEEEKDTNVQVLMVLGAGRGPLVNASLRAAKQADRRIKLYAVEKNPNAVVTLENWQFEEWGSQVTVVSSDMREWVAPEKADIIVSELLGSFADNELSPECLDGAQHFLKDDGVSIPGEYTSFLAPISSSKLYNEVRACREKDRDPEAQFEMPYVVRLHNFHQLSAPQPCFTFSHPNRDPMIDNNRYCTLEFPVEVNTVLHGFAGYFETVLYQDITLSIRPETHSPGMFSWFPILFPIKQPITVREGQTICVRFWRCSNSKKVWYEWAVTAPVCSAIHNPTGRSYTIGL
Sequence of PRMT5-MEP50 enzyme complex (Q9BQA1 2-342 partner): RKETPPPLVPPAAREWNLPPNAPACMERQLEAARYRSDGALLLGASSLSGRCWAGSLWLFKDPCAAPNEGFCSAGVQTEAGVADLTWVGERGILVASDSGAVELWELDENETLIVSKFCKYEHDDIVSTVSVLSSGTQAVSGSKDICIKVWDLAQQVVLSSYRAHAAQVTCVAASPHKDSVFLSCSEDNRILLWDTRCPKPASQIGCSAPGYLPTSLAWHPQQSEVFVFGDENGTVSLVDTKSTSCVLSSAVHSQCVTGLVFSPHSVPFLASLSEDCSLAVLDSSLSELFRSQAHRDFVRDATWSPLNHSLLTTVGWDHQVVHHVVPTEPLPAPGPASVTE

SMILES	IC50 [nM]
CC1CCN(Cc2ccc3c(c2)OCCN(C[C@H](O)CN2CCc4ccccc4C2)C3=O)CC1 [Example 27, 4-[(2R)-3-(3,4-dihydro-1H-isoquinolin-2-yl)-2-hydroxy-propyl]-8-[(4-methyl-1-piperidyl)methyl]-2,3-dihydro-1,4-benzoxazepin-5-one]	1 to 100
CC(=O)N1CCCC(Oc2ccc3c(c2)OCCN(C[C@H](O)CN2CCc4ccccc4C2)C3=O)C1 (stereo partly drawn) [Example 79, 8-[(1-acetyl-3-piperidyl)oxy]-4-[(2R)-3-(3,4-dihydro-1H-isoquinolin-2-yl)-2-hydroxy-propyl]-2,3-dihydro-1,4-benzoxazepin-5-one]	100 to 1000
CCN1C2CCC1CC(Oc1ccc3c(c1)N(C)CCN(C[C@H](O)CN1CCc4ccccc4C1)C3=O)C2 (stereo partly drawn) [Example 137, 4-[(2R)-3-(3,4-dihydro-1H-isoquinolin-2-yl)-2-hydroxy-propyl]-8-[(8-ethyl-8-azabicyclo[3.2.1]octan-3-yl)oxy]-1-methyl-2,3-dihydro-1,4-benzodiazepin-5-one]	1 to 100
CN1CCN(C[C@H](O)CN2CCc3ccccc3C2)C(=O)c2ccc(C3=CCCCC3)cc21 [Example 118, 8-(cyclohexen-1-yl)-4-[(2R)-3-(3,4-dihydro-1H-isoquinolin-2-yl)-2-hydroxy-propyl]-1-methyl-2,3-dihydro-1,4-benzodiazepin-5-one]	1 to 100
O=C1c2ccc(C(=O)N3C4CCC3COC4)cc2OCCN1C[C@H](O)CN1CCc2ccccc2C1 [Example 189, 4-[(2R)-3-(3,4-dihydro-1H-isoquinolin-2-yl)-2-hydroxy-propyl]-8-(3-oxa-8-azabicyclo[3.2.1]octan-8-carbonyl)-2,3-dihydro-1,4-benzoxazepin-5-one]	100 to 1000
O=C(c1ccc2c(c1)OCCN(C[C@H](O)CN1CCc3ccccc3C1)C2=O)N1CCCC(C(F)(F)F)C1 (stereo partly drawn) [Example 185, 4-[(2R)-3-(3,4-dihydro-1H-isoquinolin-2-yl)-2-hydroxy-propyl]-8-[3-(trifluoromethyl)piperidine-1-carbonyl]-2,3-dihydro-1,4-benzoxazepin-5-one]	100 to 1000
CC(=O)N1C2CCC1CC(Oc1ccc3c(c1)OCCN(C[C@H](O)CN1CCc4ccccc4C1)C3=O)C2 (stereo partly drawn) [Example 173, 8-[(8-acetyl-8-azabicyclo[3.2.1]octan-3-yl)oxy]-4-[(2R)-3-(3,4-dihydro-1H-isoquinolin-2-yl)-2-hydroxy-propyl]-2,3-dihydro-1,4-benzoxazepin-5-one]	1 to 100
C[C@@H]1CN(C[C@H](O)CN2CCc3ccccc3C2)C(=O)c2ccc(OC3CCN(CCO)C[C@H]3F)cc2O1 (stereo partly drawn) [Example 255, (2R)-4-[(2R)-3-[(2R)-3-(3,4-dihydro-1H-isoquinolin-2-yl)-2-hydroxy-propyl]-8-[[(3R,4R)-3-fluoro-1-(2-hydroxyethyl)-4-piperidyl]oxy]-2-methyl-2,3-dihydro-1,4-benzoxazepin-5-one dihydrochloride]	100 to 1000
CC1(C)CN(C[C@H](O)CN2CCc3ccccc3C2)C(=O)c2ccc(C(=O)N3C4CCC3COC4)cc2O1 [Example 203, 4-[(2R)-3-(3,4-dihydro-1H-isoquinolin-2-yl)-2-hydroxy-propyl]-2,2-dimethyl-8-(3-oxa-8-azabicyclo[3.2.1]octan-8-carbonyl)-3H-1,4-benzoxazepin-5-one]	100 to 1000
CC(C)(C)OC(=O)N1CC=C(c2ccc3c(c2)OCCN(C[C@H](O)CN2CCc4ccccc4C2)C3=O)CC1 [Example 14, Tert-butyl 4-[4-[(2R)-3-(3,4-dihydro-1H-isoquinolin-2-yl)-2-hydroxy-propyl]-5-oxo-2,3-dihydro-1,4-benzoxazepin-8-yl]-3,6-dihydro-2H-pyridine-1-carboxylate]	100 to 1000
CN1CCN(C[C@H](O)CN2CCc3ccccc3C2)C(=O)c2ccc(OC3CCN(C4COC4)CC3)cc21 [Example 129, 4-[(2R)-3-(3,4-dihydro-1H-isoquinolin-2-yl)-2-hydroxy-propyl]-1-methyl-8-[[1-(oxetan-3-yl)-4-piperidyl]oxy]-2,3-dihydro-1,4-benzodiazepin-5-one]	100 to 1000
CC(C)N1CCC[C@H]1COc1ccc2c(c1)OCCN(C[C@H](O)CN1CCc3ccccc3C1)C2=O [Example 101, 4-[(2R)-3-(3,4-dihydro-1H-isoquinolin-2-yl)-2-hydroxy-propyl]-8-[[(2S)-1-isopropylpyrrolidin-2-yl]methoxy]-2,3-dihydro-1,4-benzoxazepin-5-one]	100 to 1000
O=C(c1ccc2c(c1)OCCN(C[C@H](O)CN1CCc3ccccc3C1)C2=O)N1CCCC(F)C1 (stereo partly drawn) [Example 194, 4-[(2R)-3-(3,4-dihydro-1H-isoquinolin-2-yl)-2-hydroxy-propyl]-8-(3-fluoropiperidine-1-carbonyl)-2,3-dihydro-1,4-benzoxazepin-5-one]	100 to 1000
CN1CCN(C[C@H](O)CN2CCc3ccccc3C2)C(=O)c2ccc(OC3CCN(C4CCC4)CC3)cc21 [Example 127, 8-[(1-cyclobutyl-4-piperidyl)oxy]-4-[(2R)-3-(3,4-dihydro-1H-isoquinolin-2-yl)-2-hydroxy-propyl]-1-methyl-2,3-dihydro-1,4-benzodiazepin-5-one]	1 to 100

The next lines start with the values.

IC50 [nM]	SMILES
1 to 100	O=C1c2ccc(C#Cc3ccncc3)cc2OCCN1C[C@H](O)CN1CCc2ccccc2C1 [Example 226, 4-[(2R)-3-(3,4-dihydro-1H-isoquinolin-2-yl)-2-hydroxy-propyl]-8-[2-(4-pyridyl)ethynyl]-2,3-dihydro-1,4-benzoxazepin-5-one]
1 to 100	O=C1c2ccc(CN3CCC(F)CC3)cc2OCCN1C[C@H](O)CN1CCc2ccccc2C1 [Example 32, 4-[(2R)-3-(3,4-dihydro-1H-isoquinolin-2-yl)-2-hydroxy-propyl]-8-[(4-fluoro-1-piperidyl)methyl]-2,3-dihydro-1,4-benzoxazepin-5-one]
100 to 1000	CN1CCOC(COc2ccc3c(c2)OCCN(C[C@H](O)CN2CCc4ccccc4C2)C3=O)C1 (stereo partly drawn) [Example 104, 4-[(2R)-3-(3,4-dihydro-1H-isoquinolin-2-yl)-2-hydroxy-propyl]-8-[(4-methylmorpholin-2-yl)methoxy]-2,3-dihydro-1,4-benzoxazepin-5-one]
100 to 1000	O=C1c2ccc(C3CCOCC3)cc2OCCN1C[C@H](O)CN1CCc2ccccc2C1 [Example 21, 4-[(2R)-3-(3,4-dihydro-1H-isoquinolin-2-yl)-2-hydroxy-propyl]-8-tetrahydropyran-4-yl-2,3-dihydro-1,4-benzoxazepin-5-one]
100 to 1000	O=C1c2ccccc2OCCN1CC(O)CN1CCc2ccccc2C1 (stereo not drawn) [Example 147, 4-[3-(3,4-dihydro-1H-isoquinolin-2-yl)-2-hydroxy-propyl]-2,3-dihydro-1,4-benzoxazepin-5-one]
100 to 1000	O=C1c2ccc(Oc3ncc(F)cn3)cc2OCCN1C[C@H](O)CN1CCc2ccccc2C1 [Example 211, 4-[(2R)-3-(3,4-dihydro-1H-isoquinolin-2-yl)-2-hydroxy-propyl]-8-(5-fluoropyrimidin-2-yl)oxy-2,3-dihydro-1,4-benzoxazepin-5-one]
100 to 1000	N#Cc1ccc2c(c1)CCCN(C[C@H](O)CN1CCc3ccccc3C1)C2=O [Example 9, 2-[(2R)-3-(3,4-dihydro-1H-isoquinolin-2-yl)-2-hydroxy-propyl]-1-oxo-4,5-dihydro-3H-2-benz azepin-7-carbonitrile]

From patent publication US11111237B2, “Bicyclic compound and use thereof” (SK BIOPHARMACEUTICALS CO., LTD., priority 2019, dated 2021)
